Source: ChEMBL document CHEMBL4483862, “Open-source discovery of chemical leads for next-generation chemoprotective antimalarials” (2018)

System: Plasmodium berghei
Assay: Luciferase/luciferin-expressing antifolate-resistant parasites were used to infect a culture of HepG2 cells that were pre-incubated with compounds. Infected hepatocytes emit light due to the luciferase reaction. Assay results are presented as the percent inhibition of light emission compared to control. […]
Format: functional
Settings: sporozoite; for IC90: read-out: LUCIFERASE INFECTION ASSAY - IC90
[1] = read-out: LUCIFERASE INFECTION ASSAY - IC50

| SMILES | IC90 [µM] | IC50 [1] [µM] | other results |
| --- | --- | --- | --- |
| COc1ccc(C(CNC(=O)Cc2coc3c(C)c(C)ccc23)N(C)C)cc1 (configuration not stated) | 3.36 | – | IC50 (PBLUC_HILL_SLOPE 2.38, PBLUC_R_SQUARED 0.44, read-out: LUCIFERASE INFECTION ASSAY - IC50): 1.33 µM |
| CC(C)(C)c1ccc(/C=C2\CCCc3c2nc2ccccc2c3C(=O)OCC(=O)N2CCOCC2)cc1 | > 10 | 8.09 | – |
| Cc1cc(C(=O)Nc2ccncc2Cl)c(C)s1 | > 10 | > 10 | – |
| CCOCCCn1c(SCC(=O)Nc2scc(C3CC3)c2C(=O)OCC)nnc1-c1ccc(Cl)cc1 | > 10 | > 10 | – |
| Cc1ccc(NS(=O)(=O)c2ccc(C(=O)Nc3ncccc3O)cc2)cc1 | 0.462 | – | IC50 (FFLUC_HILL_SLOPE 0.564, FFLUC_R_SQUARED 0.118, HEPG2TOX_HILL_SLOPE 3.99, HEPG2TOX_R_SQUARED 0.784, PBLUC_HILL_SLOPE 9.26, PBLUC_R_SQUARED 0.767, read-out: LUCIFERASE INFECTION ASSAY - IC50): 0.364 µM |
| O=C(Cc1ccc(-c2ccccc2)cc1)Nc1nc(-c2ccccn2)cs1 | > 10 | – | IC50 (PBLUC_HILL_SLOPE 13.5, PBLUC_R_SQUARED 0.18, read-out: LUCIFERASE INFECTION ASSAY - IC50): 9.2 µM |
| CC1C(OC(=O)c2ccc(CS(C)(=O)=O)cc2)CC2CC1C2(C)C (configuration not stated) | > 10 | > 10 | – |
| Cc1nc(C(N)=NOC(=O)c2c(-c3ccccc3Cl)noc2C)cs1 | > 8.76 | > 8.76 | – |
| N#Cc1ccc(/C=C(\c2nc3ccccc3[nH]2)c2nc3ccccc3s2)cc1 | 1.53 | – | IC50 (FFLUC_HILL_SLOPE 15, FFLUC_R_SQUARED 0.447, HEPG2TOX_HILL_SLOPE 15.3, HEPG2TOX_R_SQUARED 0.806, PBLUC_HILL_SLOPE 8.27, PBLUC_R_SQUARED 0.505, read-out: LUCIFERASE INFECTION ASSAY - IC50): 1.17 µM |
| CC(C)c1ccc(Nc2nccc3nc(-c4ccc(F)c(F)c4)[nH]c23)cc1 | > 10 | – | IC50 (HEPG2TOX_HILL_SLOPE 1.58, HEPG2TOX_R_SQUARED 0.81, PBLUC_HILL_SLOPE 0.658, PBLUC_R_SQUARED 0.852, read-out: LUCIFERASE INFECTION ASSAY - IC50): 0.969 µM |
| c1ccc(-c2cc3c(NCc4ccccc4CN4CCOCC4)ncnc3s2)cc1 | > 10 | > 10 | – |
| Cc1cc2c(cc1C)CSC(c1ccccc1OC(=O)c1cccc3ccccc13)SC2 | > 10 | – | IC50 (FFLUC_HILL_SLOPE 3.12, FFLUC_R_SQUARED 0.597, read-out: LUCIFERASE INFECTION ASSAY - IC50): > 10 µM |
| COc1ccccc1NC(=O)c1cc2ccccc2c(CN2CCN(c3ccccc3)CC2)c1O | > 10 | > 10 | – |
| C/N=c1\scc(-c2ccco2)n1/N=C/c1sccc1C | 1.19 | – | IC50 (FFLUC_HILL_SLOPE 0.471, FFLUC_R_SQUARED 0.601, PBLUC_HILL_SLOPE 1.29, PBLUC_R_SQUARED 0.771, read-out: LUCIFERASE INFECTION ASSAY - IC50): 0.216 µM |
| CC(C)N1CCCc2cc(CN3CCC4(CC3)C(=O)N(CCCc3ccncc3)C(=O)N4C)ccc21 | > 6.74 | – | IC50 (HEPG2TOX_HILL_SLOPE 0.974, HEPG2TOX_R_SQUARED 0.954, PBLUC_HILL_SLOPE 1.42, PBLUC_R_SQUARED 0.506, read-out: LUCIFERASE INFECTION ASSAY - IC50): 3.48 µM |
| O=C(NC1CCN(c2ccc(S(=O)(=O)C(F)(F)F)cc2)CC1)C1CC1 | 2.59 | – | IC50 (HEPG2TOX_HILL_SLOPE 1.52, HEPG2TOX_R_SQUARED 0.775, PBLUC_HILL_SLOPE 1.87, PBLUC_R_SQUARED 0.699, read-out: LUCIFERASE INFECTION ASSAY - IC50): 0.799 µM |
| Cc1cc(NCc2ccccn2)n2ncc(-c3ccccc3Cl)c2n1 | > 9.43 | – | IC50 (PBLUC_HILL_SLOPE 4.03, PBLUC_R_SQUARED 0.181, read-out: LUCIFERASE INFECTION ASSAY - IC50): 5.66 µM |
| O=C(CSc1nc2cc(S(=O)(=O)Nc3ccccc3Cl)ccc2o1)NCc1ccccc1 | > 10 | > 10 | – |
| CCC(=O)c1cn(S(=O)(=O)c2ccc(C)cc2)c2ccccc12 | 3.32 | – | IC50 (HEPG2TOX_HILL_SLOPE 1.47, HEPG2TOX_R_SQUARED 0.948, PBLUC_HILL_SLOPE 16.3, PBLUC_R_SQUARED 0.746, read-out: LUCIFERASE INFECTION ASSAY - IC50): 2.9 µM |
| COc1ccc(C(=O)Nc2cccc(/C=C3\S/C(=N\C4CCCC4)NC3=O)c2)cc1 | > 10 | – | IC50 (HEPG2TOX_HILL_SLOPE 1.03, HEPG2TOX_R_SQUARED 0.894, PBLUC_HILL_SLOPE 3.32, PBLUC_R_SQUARED 0.257, read-out: LUCIFERASE INFECTION ASSAY - IC50): 5.96 µM |
| Cc1nc(Nc2ccc(C(=O)N(C)C)cc2)c2c(-c3ccccc3)csc2n1 | 8.69 | – | IC50 (FFLUC_HILL_SLOPE 16.2, FFLUC_R_SQUARED 0.398, PBLUC_HILL_SLOPE 15.9, 4.17, PBLUC_R_SQUARED 0.757, 0.868, read-out: LUCIFERASE INFECTION ASSAY - IC50): 7.45 µM |

| SMILES | IC90 [µM] | IC50 [1] [µM] | other results |
| --- | --- | --- | --- |
| Cc1ccc(N2C(=N)C(c3nc4ccccc4s3)C(c3ccccc3)C2=O)cc1 (configuration not stated) | > 10 | – | IC50 (FFLUC_HILL_SLOPE 38.3, FFLUC_R_SQUARED 0.217, HEPG2TOX_HILL_SLOPE 0.75, HEPG2TOX_R_SQUARED 0.479, read-out: LUCIFERASE INFECTION ASSAY - IC50): > 10 µM |
| CCN1C/C(=C/c2ccccc2OC(F)F)C(=O)/C(=C/c2ccccc2OC(F)F)C1 | > 10 | – | IC50 (HEPG2TOX_HILL_SLOPE 12.5, HEPG2TOX_R_SQUARED 0.688, PBLUC_HILL_SLOPE 10.4, PBLUC_R_SQUARED 0.447, read-out: LUCIFERASE INFECTION ASSAY - IC50): 9.35 µM |
| O=C(NCc1cccs1)C1Cc2c(-c3ccccc3)ccnc2O1 (configuration not stated) | 6.65 | – | IC50 (HEPG2TOX_HILL_SLOPE 2.36, HEPG2TOX_R_SQUARED 0.977, PBLUC_HILL_SLOPE 2.08, PBLUC_R_SQUARED 0.632, read-out: LUCIFERASE INFECTION ASSAY - IC50): 2.31 µM |
| Cc1onc(-c2c(Cl)cccc2Cl)c1C(=O)ONC(=N)c1c(Cl)cccc1Cl | > 7.19 | – | IC50 (PBLUC_HILL_SLOPE 3.4, PBLUC_R_SQUARED 0.373, read-out: LUCIFERASE INFECTION ASSAY - IC50): 5.6 µM |
| NC(c1csc(NC(=O)Nc2cccc3ccccc23)n1)C1CCCCC1 (configuration not stated) | > 8.67 | > 8.67 | – |
| CC(=O)Nc1ccc(Nc2cc3c(cn2)nc(-c2ccccc2)n3C)cc1 | 3.77 | – | IC50 (HEPG2TOX_HILL_SLOPE 4.43, HEPG2TOX_R_SQUARED 0.848, PBLUC_HILL_SLOPE 16.8, PBLUC_R_SQUARED 0.556, read-out: LUCIFERASE INFECTION ASSAY - IC50): 3.31 µM |
| COc1cc(C(=O)Nc2ccc(Cn3cncn3)cc2)ccc1Oc1ccc(Cl)cc1[N+](=O)[O-] | 6.19 | – | IC50 (PBLUC_HILL_SLOPE 72.9, PBLUC_R_SQUARED 0.579, read-out: LUCIFERASE INFECTION ASSAY - IC50): 6.01 µM |
| O=C1c2cc(Br)ccc2S(=O)(=O)N1CC(c1ccco1)N1CCCC1 (configuration not stated) | > 10 | > 10 | – |
| COc1ccc(C(N)c2csc(NC(=O)c3cc(C(C)(C)C)nn3Cc3ccccc3)n2)cc1 (configuration not stated) | 4.86 | – | IC50 (HEPG2TOX_HILL_SLOPE 0.0688, HEPG2TOX_R_SQUARED 0.351, PBLUC_HILL_SLOPE 6.29, PBLUC_R_SQUARED 0.765, read-out: LUCIFERASE INFECTION ASSAY - IC50): 3.43 µM |
| OC(CN1CC=C(c2c[nH]c3ccccc23)CC1)c1ccccc1 (configuration not stated) | > 10 | – | IC50 (HEPG2TOX_HILL_SLOPE 8.59, HEPG2TOX_R_SQUARED 0.892, PBLUC_HILL_SLOPE 2.5, PBLUC_R_SQUARED 0.397, read-out: LUCIFERASE INFECTION ASSAY - IC50): 5.3 µM |
| O=C(NCCC1=CCCCC1)c1cccc(N2CCCC2=O)c1 | > 10 | – | IC50 (FFLUC_HILL_SLOPE 0.738, FFLUC_R_SQUARED 0.473, PBLUC_HILL_SLOPE 0.427, PBLUC_R_SQUARED 0.183, read-out: LUCIFERASE INFECTION ASSAY - IC50): > 10 µM |
| N#Cc1ccccc1Sc1ccccc1C(=O)OCc1cc(=O)oc2cc(Br)ccc12 | > 10 | – | IC50 (HEPG2TOX_HILL_SLOPE 1.78, HEPG2TOX_R_SQUARED 0.958, PBLUC_HILL_SLOPE 3.89, PBLUC_R_SQUARED 0.0824, read-out: LUCIFERASE INFECTION ASSAY - IC50): 9.13 µM |
| COc1cc(NC(=O)COc2ccc3[nH]c4ccccc4c(=O)c3c2)c(OC)cc1Cl | 2.11 | 0.246 | – |
| Cc1ccc(NC2=C(Cl)C(=O)c3ccccc3C2=O)cc1 | 7.81 | – | IC50 (HEPG2TOX_HILL_SLOPE 4.14, HEPG2TOX_R_SQUARED 0.984, PBLUC_HILL_SLOPE 5.35, PBLUC_R_SQUARED 0.565, read-out: LUCIFERASE INFECTION ASSAY - IC50): 5.18 µM |
| O=C(Nc1ncc(Cc2ccc(Br)cc2)s1)c1ccc2n[nH]nc2c1 | 1.27 | – | IC50 (HEPG2TOX_HILL_SLOPE 1.09, HEPG2TOX_R_SQUARED 0.989, PBLUC_HILL_SLOPE 1.74, PBLUC_R_SQUARED 0.819, read-out: LUCIFERASE INFECTION ASSAY - IC50): 0.359 µM |
| CC(=O)c1c(F)cccc1N1CCC(c2nc3ccccc3[nH]2)CC1 | 5.87 | 2.87 | – |
| CCc1ccc2nc(NC(=O)c3cnccn3)sc2c1 | 9.66 | – | IC50 (HEPG2TOX_HILL_SLOPE 14.5, HEPG2TOX_R_SQUARED 0.913, PBLUC_HILL_SLOPE 21.7, PBLUC_R_SQUARED 0.176, read-out: LUCIFERASE INFECTION ASSAY - IC50): 8.73 µM |
| O=C1CN(CC(=O)N2N=C(c3ccc4ccccc4c3)CC2c2ccccc2)c2ccccc2N1 (configuration not stated) | > 10 | – | IC50 (PBLUC_HILL_SLOPE 15.5, PBLUC_R_SQUARED 0.336, read-out: LUCIFERASE INFECTION ASSAY - IC50): 9.53 µM |
| CCOCCCn1c(SCc2nc(-c3cccs3)oc2C)nc2sc(C)c(C)c2c1=O | > 10 | > 10 | – |
| CN(c1nc2ccccc2nc1O)C1CCCCC1 | > 10 | > 10 | – |
